Results taken from ChEMBL document CHEMBL1128118, “Synthesis of biologically active 2-benzoyl paclitaxel analogues” (1995).

Columns and labels:
Tubulin (Bos taurus) = Tubulin (Bos taurus) (UniProt Q6B856+Q862L2+Q862F3); assay: Ratio of ED50 for microtubule polymerization to ED50 for paclitaxel; Relative paclitaxel ED50 = 1.0; assay type: functional
B16 = assay: Ratio of ED50 of compound for B16 melanoma cytotoxicity to that of ED50 of paclitaxel; Relative paclitaxel ED50 = 1.0; assay type: functional, Mus musculus
P388 = assay: Compound was tested for in vitro cytotoxicity against P388 cells; assay type: functional, Mus musculus

Row | Structure (SMILES) | Ratio (Tubulin (Bos taurus)) | Ratio (B16) | Activity (P388)
1 | CC(=O)O[C@H]1C(=O)[C@]2(C)[C@@H](O)CC3OC[C@@]3(OC(C)=O)[C@H]2[C@H](OC(=O)c2cccc(C(F)(F)F)c2)[C@]2(O)C[C@H](OC(=O)[C@H](O)[C@@H](NC(=O)c3ccccc3)c3ccccc3)C(C)=C1C2(C)C (some centres not stated) | 0.64 | 2.7 | 
2 | CC(=O)O[C@H]1C(=O)[C@]2(C)[C@@H](O)CC3OC[C@@]3(OC(C)=O)[C@H]2[C@H](OC(=O)c2ccc(C)cc2)[C@]2(O)C[C@H](OC(=O)[C@H](O)[C@@H](NC(=O)c3ccccc3)c3ccccc3)C(C)=C1C2(C)C (some centres not stated) | 1.6 | 5.1 | 
3 | CC(=O)O[C@H]1C(=O)[C@]2(C)[C@@H](O)CC3OC[C@@]3(OC(C)=O)[C@H]2[C@H](OC(=O)c2cccc(C)c2)[C@]2(O)C[C@H](OC(=O)[C@H](O)[C@@H](NC(=O)c3ccccc3)c3ccccc3)C(C)=C1C2(C)C (some centres not stated) | 1.7 | 1.6 | 
4 | CC(=O)O[C@H]1C(=O)[C@]2(C)[C@@H](O)CC3OC[C@@]3(OC(C)=O)[C@H]2[C@H](OC(=O)c2cc(Cl)cc(Cl)c2)[C@]2(O)C[C@H](OC(=O)[C@H](O)[C@@H](NC(=O)c3ccccc3)c3ccccc3)C(C)=C1C2(C)C (some centres not stated) | 0.98 | 1.8 | 
5 | CC(=O)O[C@H]1C(=O)[C@]2(C)[C@@H](O)CC3OC[C@@]3(OC(C)=O)[C@H]2[C@H](OC(=O)c2ccccc2C)[C@]2(O)C[C@H](OC(=O)[C@H](O)[C@@H](NC(=O)c3ccccc3)c3ccccc3)C(C)=C1C2(C)C (some centres not stated) | 1.1 | 0.84 | 
6 | CC(=O)O[C@H]1C(=O)[C@]2(C)[C@@H](O)CC3OC[C@@]3(OC(C)=O)[C@H]2[C@H](OC(=O)c2ccc(Cl)cc2)[C@]2(O)C[C@H](OC(=O)[C@H](O)[C@@H](NC(=O)c3ccccc3)c3ccccc3)C(C)=C1C2(C)C (some centres not stated) | 0.79 | 3.1 | 
7 | CC(=O)O[C@H]1C(=O)[C@]2(C)[C@@H](O)CC3OC[C@@]3(OC(C)=O)[C@H]2[C@H](OC(=O)c2ccc(F)cc2)[C@]2(O)C[C@H](OC(=O)[C@H](O)[C@@H](NC(=O)c3ccccc3)c3ccccc3)C(C)=C1C2(C)C (some centres not stated) | 3.2 | >36 | 
8 | CC(=O)O[C@H]1C(=O)[C@@]2(C)[C@H]([C@H](OC(=O)c3ccccc3)[C@]3(O)C[C@H](OC(=O)[C@H](O)[C@@H](NC(=O)c4ccccc4)c4ccccc4)C(C)=C1C3(C)C)[C@]1(OC(C)=O)CO[C@@H]1C[C@@H]2O [PACLITAXEL] | 1 | 1 | 1
9 | COc1ccc(C(=O)O[C@H]2[C@H]3[C@](C)(C(=O)[C@H](OC(C)=O)C4=C(C)[C@@H](OC(=O)[C@H](O)[C@@H](NC(=O)c5ccccc5)c5ccccc5)C[C@]2(O)C4(C)C)[C@@H](O)CC2OC[C@]23OC(C)=O)cc1 (some centres not stated) | 6 | 22 | 
10 | CC(=O)O[C@H]1C(=O)[C@]2(C)[C@@H](O)CC3OC[C@@]3(OC(C)=O)[C@H]2[C@H](OC(=O)c2cccc(Cl)c2)[C@]2(O)C[C@H](OC(=O)[C@H](O)[C@@H](NC(=O)c3ccccc3)c3ccccc3)C(C)=C1C2(C)C (some centres not stated) | 1.1 | 0.57 | 0.81
11 | CC(=O)O[C@H]1C(=O)[C@]2(C)[C@@H](O)CC3OC[C@@]3(OC(C)=O)[C@H]2[C@H](OC(=O)c2ccc(Cl)c(Cl)c2)[C@]2(O)C[C@H](OC(=O)[C@H](O)[C@@H](NC(=O)c3ccccc3)c3ccccc3)C(C)=C1C2(C)C (some centres not stated) | 0.45 | 2.7 | 
12 | CC(=O)O[C@H]1C(=O)[C@]2(C)[C@@H](O)CC3OC[C@@]3(OC(C)=O)[C@H]2[C@H](OC(=O)c2ccc([N+](=O)[O-])cc2)[C@]2(O)C[C@H](OC(=O)[C@H](O)[C@@H](NC(=O)c3ccccc3)c3ccccc3)C(C)=C1C2(C)C (some centres not stated) | > 8.8 |  | 
13 | CC(=O)O[C@H]1C(=O)[C@]2(C)[C@@H](O)CC3OC[C@@]3(OC(C)=O)[C@H]2[C@H](OC(=O)c2cccc([N+](=O)[O-])c2)[C@]2(O)C[C@H](OC(=O)[C@H](O)[C@@H](NC(=O)c3ccccc3)c3ccccc3)C(C)=C1C2(C)C (some centres not stated) | 1.3 | 0.73 | 
